# Experimental data as given in paper PMC12477080, “Polychlorinated biphenyls (PCBs) interact with drug metabolism in vivo” (Archives of Toxicology, 2025).
# Assays:
# [1] = Determination of PCB concentrations in plasma of HELPcB and control participants; type: in vivo; details: human plasma
# Protocol: The laboratory regularly participates in round robins for the determination of PCBs in plasma (www.g-equas.de).
# Plasma concentrations of PCB congeners were quantified in blood samples from all participants using gas chromatography/mass spectrometry (GC–MS) (Fig. 2A and Supplementary Table 2). A total of 19 PCB congeners were measured in control (n = 10) and HELPcB (n = 10) participants, with PCBs detected in all individuals. […] In the control group, PCB plasma concentrations primarily reflected background environmental exposure, such as dietary intake, representing the general population’s burden.
# CYP2C9 [2] = assay: CYP phenotyping cocktail clinical study: torsemide/OH-torsemide metabolic ratio and its association with PCB plasma levels
# Protocol: (§1) The participants were ascertained not to have any acute disease by medical history, physical examination, laboratory screening, including hematological and biochemical blood tests, and a 12-lead electrocardiogram. […] The demographic data of the subjects are summarized in Table 1 in the supplemental data. At the enrollment visit, 2 blood samples (9 ml each) were collected into ethylenediaminetetraacetic acid (EDTA)-containing tubes taken from each subject for analyzing the plasma concentrations of PCB congeners and for pharmacogenetic analysis.
# (§2) Participants stayed fasted from the evening before until 3 h after drug administration. After that, a meal was provided. Water and juice were permitted but alcoholic and caffeinated beverages were not allowed from the evening before drug administration until the last blood sample was taken on the next day. Venous blood samples (9 ml each) were collected through an intravenous catheter immediately before and 0.25, 0.5, 0.75, 1, 1.5, 2, 2.5, 3, 4, 5, 6, 7, 8, and 24 h after drug administration. Blood was drawn into EDTA-coated tubes, centrifuged at 1500 g for 10 min at 4 °C, and plasma samples were subsequently stored at − 80 °C until further analysis. After completely voiding the bladder immediately before drug administration, the participants collected urine from 0 to 24 h after drug administration. After weighing the collected urine, a 10 ml aliquot of each fraction was taken.
# (§3) Commercially sourced standards and internal standards were used for quantification (see Supplemental Materials). In brief, 20 µl of the plasma samples were protein-precipitated with 80 µl methanol containing all internal standards or were treated for 16 h at 37 °C with 2 µl β-glucuronidase (1,000,000 Units) for deconjugation before protein precipitation with 78 µl methanol containing internal standards. Samples were centrifuged for 20 min, at 4 °C and 17,000 × g, and 40 µl of the supernatants were diluted with 40 µl LC–MS grade water, centrifuged again for 5 min at 4 °C and 17,000 × g and 50 µl supernatant were transferred to LC–MS vials 5 µl of the samples were injected into the LC–MS system.
# (§4) An Agilent 1290 Infinity II UHPLC coupled with a SCIEX QTRAP6500 + triple quadrupole mass spectrometer was used. Chromatographic separation was achieved on an Agilent Poroshell 120 EC-C18 (1.9 µm, 2.1 × 50 mm) column with A: 0.1% formic acid in water and B: methanol with a flow rate of 0.7 ml/min and a total run time of 8.5 min. Analytes were eluted using a gradient program. The following gradient steps represent gradual changes in % B over time: 5% B from 0 to 0.2 min, 30% B at 2 min, 34% B at 4.8 min, 95% B at 6.5 min, 95% B at 7.5 min and re-equilibrating to 5% B at 7.7 min and 5%B till 8.5 min. A representative chromatogram is shown in supplemental Fig. 2. The scheduled MRM mode was applied for analyte detection in both positive and negative ESI modes (Supplementary Table 4). Calibration curves were constructed with linear regression using weighted (1/x^2) models (detailed information in supplemental methods).
# (§5) Partial areas under the plasma concentration–time curves from 0 to 3 h (AUC0–3 h), from 0 to 4 h (AUC0–4 h), and from 0 to 8 h (AUC0–8 h) were calculated based on measured concentrations by the linear trapezoidal rule without extrapolation. […] Metabolic ratios (MR) were calculated by dividing the partial AUC of the metabolite by the respective partial AUC of the parent drug. The MRs were used as biomarkers for the individual CYP activities of the study subjects.
# CYP2C9 mRNA = details: primary human hepatocytes, three donors, 48 h exposure; PCB74 0.1 and 0.5 µM
# CYP2D6 = assay: CYP phenotyping cocktail clinical study: metoprolol/α-OH-metoprolol metabolic ratio and its association with PCB plasma levels; details: linear regression of MR AUC0–8 h α-OH-metoprolol/metoprolol (CYP2D6 activity) on PCB plasma concentration
# Protocol: as §1, §2, §3, §4, §5
# recombinant CYP2C9 = recombinant CYP2C9 (Homo sapiens, UniProt P11712); details: PCB74 1–10 µM; Luciferin–ME substrate
# Protocol: (§6) CYP1A2 and CYP2C9 enzyme activity was first assessed using a luciferase-based P450-Glo™ screening system (Promega, Madison, WI, USA) following the manufacturer’s instructions. The reaction mixture consisted of 1 nM recombinant enzyme (CYP1A2 or CYP2C9), 250 µM luciferin–ME substrate, 0.1 M potassium phosphate buffer (pH 7.4), and an NADPH regeneration system (including NADP⁺, glucose-6-phosphate, MgCl₂, and glucose-6-phosphate dehydrogenase), in a total volume of 50 µL. Controls for enzyme inhibition included α-naphthoflavone (1 µM) for CYP1A2 and sulfaphenazole (2 µM) for CYP2C9. After preincubation at 37 °C for 10 min (excluding NADPH), the reaction was initiated by adding the NADPH regeneration system and incubated for 30 min. To terminate the reaction and generate luminescence, 50 µL of Luciferin Detection Reagent was added, followed by a 20-min incubation at room temperature. Luminescence was measured using a luminometer, with light intensity proportional to CYP activity. […] Enzyme activity was quantified relative to a d-luciferin standard curve and expressed as pmol luciferin/min/pmol CYP. […] Cells were maintained at 37 °C with 5% CO₂ throughout the experiment. […] Supernatants were transferred to LC–MS vials and analyzed for relevant metabolites. Details on metabolite quantification are provided in the supplemental file. […]
# [3] = molecular target: HEK293 cells overexpressing CYP2C9 (Homo sapiens, UniProt P11712); details: 0.1, 0.5, 1 µM PCB74, 24 h, then 10 µM torsemide 24 h
# Protocol: as §6
# CYP2B6 = assay: CYP phenotyping cocktail clinical study: efavirenz/8-OH-efavirenz metabolic ratio and its association with PCB plasma levels; details: linear regression of MR AUC0–8 h 8-OH-efavirenz/efavirenz (CYP2B6 activity) on PCB plasma concentration
# Protocol: as §1, §2, §3, §4, §5
# CYP1A2 = test system: CYP1A2; design: method as in Solan and Lavado [2023]; details: ref Solan and Lavado [2023]; cited from earlier work
# CYP2C9 [4] = test system: CYP2C9; design: method as in Makia et al. [2014]; details: cFos and JunD binding to CYP2C9 promoter; ref Makia et al. [2014]; cited from earlier work
# [5] = linear regression of MR AUC0–8 h OH-torsemide/torsemide (CYP2C9 activity) on PCB plasma concentration
# HEK293 cells overexpressing CYP2C9, sequence (P11712 whole entry): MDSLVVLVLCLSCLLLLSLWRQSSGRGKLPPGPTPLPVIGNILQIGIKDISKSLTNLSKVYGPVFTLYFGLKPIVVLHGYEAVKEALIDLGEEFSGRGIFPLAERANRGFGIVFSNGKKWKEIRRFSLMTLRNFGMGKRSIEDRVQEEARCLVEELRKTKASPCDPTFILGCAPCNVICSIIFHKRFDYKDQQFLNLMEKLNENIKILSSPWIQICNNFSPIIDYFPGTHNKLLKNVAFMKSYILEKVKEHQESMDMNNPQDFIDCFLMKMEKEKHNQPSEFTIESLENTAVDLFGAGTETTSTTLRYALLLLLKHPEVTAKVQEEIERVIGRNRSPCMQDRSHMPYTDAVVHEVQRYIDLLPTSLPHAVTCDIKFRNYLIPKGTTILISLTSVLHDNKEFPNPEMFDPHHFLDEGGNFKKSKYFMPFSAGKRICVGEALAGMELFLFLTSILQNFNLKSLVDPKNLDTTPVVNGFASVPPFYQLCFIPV
# recombinant CYP2C9, sequence (P11712 whole entry): as above
smiles,measurement,setting,value
Clc1ccc(-c2cc(Cl)c(Cl)cc2Cl)cc1 [PCB74],"PCB plasma concentration, Mean [±SD] HELPcB",[1]; HELPcB (occupationally exposed) group,0.129 ± 0.121 ng/mL
same,"PCB plasma concentration, Geometric mean, HELPcB","[1]; HELPcB group, N 10",0.086 ng/mL
same,"PCB plasma concentration, Mean [±SD] all",[1]; all participants,0.071 ± 0.102 ng/mL
same,"PCB plasma concentration, Mean [±SD] control",[1]; control group (background exposure),0.014 ± 0.011 ng/mL
same,"PCB plasma concentration, Geometric mean, Control","[1]; control group, N 10",0.010 ng/mL
same,association with CYP2C9 activity in hierarchical generalized mixed model,"CYP2C9 [2]; adjusted for co-factors (smoking status, gender, BMI, age)","became significant when BMI, gender, or all factors were included as co-factors"
same,t value,CYP2C9 [2]; [5],"1,826"
same,β (standardized regression coefficient),CYP2C9 [2]; [5],"0,395"
same,t value,"CYP2C9 [2]; linear regression of MR AUC0–8 h OH-torsemide/torsemide (CYP2C9 activity) on PCB plasma concentration, PM excl","1,723"
same,effect on CYP2C9 mRNA expression,CYP2C9 mRNA,did not significantly increase CYP2C9 mRNA expression
same,t value,CYP2D6,"1,723"
same,β (standardized regression coefficient),CYP2D6,"0,376"
same,effect on CYP2C9 enzyme activity (luminescence),recombinant CYP2C9,remained unaffected
same,effect on CYP2C9 activity in HEK293 cells (torsemide probe),[3],did not significantly modulate CYP2C9 activity
same,t value,CYP2B6,"0,808"
same,β (standardized regression coefficient),CYP2B6,"0,204"
same,t value,CYP2B6; PM excl,"0,622"
same,β (standardized regression coefficient),CYP2B6; PM excl,"0,170"
O=S(=O)(O)C(F)(F)C(F)(F)C(F)(F)C(F)(F)C(F)(F)C(F)(F)C(F)(F)C(F)(F)F [PFOS],effect on CYP1A2 activity,CYP1A2,inhibits CYP1A2 activity
"CC(C)(C)c1cc(O)ccc1O [tBHQ, tert-butylhydroquinone]",effect on CYP2C9 expression,CYP2C9 [4],induces CYP2C9 expression via AP-1 activation
